Read-outs that look alike come from different tables or passages of the source.
How the values were obtained:
Human opiate κ receptors [1] = molecular target: T1, Human opiate κ receptors (Homo sapiens, UniProt P41145); test: κ opioid receptor functional assay, [35S]GTPγS binding (assay C); type: biochemical; conditions: for activation at 1 µM: 0.5 h, read-out: % activation functional assay at 1 μM
[2] = test system: arachidonic acid-induced ear inflammation; type: in vivo, mice
Human opiate κ receptors [3] = molecular target: T1, Human opiate κ receptors; type: binding; set-up: expressed in transfected cells; host or cells: HEK-293 cell membranes
[4] = test system: chloroquine-induced scratching; test: Effects on chloroquine-induced scratching (assay L); type: in vivo; conditions: intrathecal injection, mice
Procedure: L. Effects on Chloroquine-Induced Scratching
Compounds are intrathecally injected in a volume of 5 μl, 10 min before the i.d. injection of chloroquine (100 μg/10 μl) in the rostral back. Following the i.d. cheek injection, mice are placed in an arena with a clear glass floor and videotaped from beneath for 30 min. Videotapes are reviewed by blinded investigators, who count the number of hindlimb scratch bouts.

[5] = topical, versus vehicle control

T1 sequence (P41145 whole entry): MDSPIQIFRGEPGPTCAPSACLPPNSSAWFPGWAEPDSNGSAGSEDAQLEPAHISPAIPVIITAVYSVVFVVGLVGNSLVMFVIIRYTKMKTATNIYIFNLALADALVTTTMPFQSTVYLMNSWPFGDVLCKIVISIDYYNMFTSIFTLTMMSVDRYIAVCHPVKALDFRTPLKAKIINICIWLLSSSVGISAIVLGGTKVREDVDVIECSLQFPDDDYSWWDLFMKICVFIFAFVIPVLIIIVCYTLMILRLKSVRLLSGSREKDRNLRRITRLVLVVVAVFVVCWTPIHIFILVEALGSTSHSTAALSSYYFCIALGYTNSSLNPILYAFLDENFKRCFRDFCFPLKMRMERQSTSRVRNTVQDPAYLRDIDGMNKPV

Row | Compound | % activation functional assay at 1 μM (Human opiate κ receptors [1]) | EC50 (Human opiate κ receptors [1]; read-out: GTPγS EC50) | increase in ear thickness [2, 5] | % binding at 100 nM (Human opiate κ receptors [3]) | activation at 1 µM (Human opiate κ receptors [1]) | chloroquine-evoked scratching [4] | EC50 (Human opiate κ receptors [1]; GTPγS EC50 (nM)) | increase in ear thickness ([2]; mouse, in vivo)
1 | CS(=O)(=O)N1CCN(C(=O)Cc2ccc(Cl)c(F)c2)C2C(N3CCC(O)C3)CCCC21.Cl (stereo not drawn) [Example 122] | 105% | < 10 nM | dose dependently prevented the increase |  |  |  |  | 
2 | CNC(=O)C(=O)N1CCN(C(=O)Cc2ccc(Cl)c(Cl)c2)[C@@H]2[C@@H](N3CC[C@H](O)C3)CCC[C@@H]21 [Example 145] | 103% | 10 to 100 nM | dose dependently prevented the increase | 62% |  |  |  | 
3 | CS(=O)(=O)N1CCN(C(=O)Cc2ccc(F)c(Cl)c2)C2C(N3CCC(O)C3)CCCC21.Cl (stereo not drawn) [Example 125] | 99% | < 10 nM | dose dependently prevented the increase | 80% |  |  |  | 
4 | COC(=O)c1ccc(C(=O)N2CCN(C(=O)Cc3ccc(Cl)c(Cl)c3)C3C(N4CCCC4)CCCC32)cc1 (racemic) [Example 81] |  |  | dose dependently prevented the increase |  | 102% | significantly inhibited |  | 
5 | COC(=O)c1ccc(C(=O)N2CCN(C(=O)Cc3ccc(Cl)c(Cl)c3)[C@@H]3[C@@H](N4CCCC4)CCC[C@@H]32)cc1.Cl [Example 114] | 93% | 10 to 100 nM | dose dependently prevented the increase |  |  | significantly inhibited |  | 
6 | CNC(=O)C(=O)N1CCN(C(=O)Cc2ccc(Cl)c(Cl)c2)[C@@H]2[C@@H](N3CCCC3)CCC[C@@H]21.Cl [Example 118] | 104% | < 10 nM | dose dependently prevented the increase |  |  |  |  | 
7 | COC(=O)N1CCN(C(=O)Cc2ccc(Cl)c(F)c2)[C@@H]2[C@@H](N3CC[C@H](O)C3)CCC[C@@H]21 [Example 112] |  |  |  |  | 93% |  | < 10 nM | dose dependently prevented the increase
